Experimental data: patent US20110190192A1, “METHODS FOR TREATING ERECTILE DYSFUNCTION IN PATIENTS WITH INSULIN-DEPENDENT DIABETES” (Cebix Inc., priority 2009, published 2011)

Assays:
[1] = C-peptide concentrations in plasma (time-resolved fluoroimmunoassay); conditions: dose ranges of the study; very small patient number
Method: Blood samples for determination of C-peptide in plasma were drawn at the S/B visit, visit 2, and at end of study (visit 4).
The sampling of C-peptide in plasma at visits 2 and 4 coincided with the clinical visit and the time between the most recent administration of the trial drug and sampling varied between patients.
C-peptide plasma levels were measured at baseline, and after 3 and 6 months of treatment. Analysis was performed by the Department of Clinical Chemistry Karolinska University Hospital, Solna using a time-resolved fluoroimmunoassay (AutoDelfia, Wallac Oy, Turku, Finland).
C-peptide plasma levels were also measured pre-dosing in the morning in 22 randomly selected patients at the Karolinska Hospital after 4.5 months of study treatment (visit 3).

[2] = test system: type 1 diabetes patients with peripheral neuropathy; assay: ECG and vital signs; format: in vivo, human; conditions: for BPd (diastolic blood pressure) change, mean ± SD / BPd (diastolic blood pressure) change, median / BPs (systolic blood pressure) change, mean ± SD / BPs (systolic blood pressure) change, median / Heart rate change, mean ± SD / Heart rate change, median / QTc-interval Bazett change, mean ± SD / QTc-interval Bazett change, median / QTc-interval Fredericia change, mean ± SD / QTc-interval Fredericia change, median: baseline to 6 months (visit 4), PP data set
Method: ECG was performed at baseline and at end of study, i.e., visit 4 (at 6 months±2 weeks from the S/B visit).

[3] = test system: type 1 diabetes patients with peripheral neuropathy; conditions: in vivo
Description: (§1) The safety measurements comprised collection of AEs, spontaneously reported by the patient or recorded by the investigator at each clinical visit.
(§2) An AE was classified as “unexpected event” (i.e., if not specifically listed in the Investigator's Brochure) in terms of nature, severity, or frequency. All AEs, including intercurrent illnesses and increased severity or frequency of sign/symptoms of a concomitant disease was reported and documented as described below. AEs were documented on an “Adverse Event/Serious Adverse Event” page of the CRF and in the patient's medical records. Any AE occurring at any time after the end of the study, considered to be caused by the study medication—and therefore a possible adverse drug reaction—was reported to the sponsor.
(§3) Hypoglycemic events are common events in insulin-treated patients. For practical reasons only severe hypoglycemic events, i.e., if the patient required assistance from another person in order to regain normoglycaemia, were reported as an AE.
(§4) The period of observation for AEs extended from the time the patient started on trial medication until end of the study. AEs were divided into the categories “serious” and “non-serious”. This determined the procedure used to report/document the AE.
(§5) Descriptive statistics were used for safety variables. […] The safety analysis set included all patients who obtained at least one dose of the investigational drug. AEs were coded according to the MedDRA dictionary. The frequencies of AEs are tabulated by body system and included/preferred term.

[4] = test system: type 1 diabetes patients with peripheral neuropathy; assay: Adverse events
Description: as §1, §2, §3, §4, §5

[5] = high-dose C-peptide, treatment emergent, any severity, PP data set
[6] = low-dose C-peptide, treatment emergent, any severity, PP data set

Compound: CC(C)C[C@H](NC(=O)[C@H](C)NC(=O)[C@H](CC(C)C)NC(=O)[C@@H]1CCCN1C(=O)[C@H](CCC(N)=O)NC(=O)[C@H](CC(C)C)NC(=O)[C@H](CO)NC(=O)CNC(=O)[C@H](C)NC(=O)CNC(=O)[C@@H]1CCCN1C(=O)CNC(=O)CNC(=O)CNC(=O)[C@H](CC(C)C)NC(=O)[C@H](CCC(=O)O)NC(=O)[C@@H](NC(=O)[C@H](CCC(N)=O)NC(=O)CNC(=O)[C@@H](NC(=O)[C@H](CCC(N)=O)NC(=O)[C@H](CC(C)C)NC(=O)[C@H](CC(=O)O)NC(=O)[C@H](CCC(=O)O)NC(=O)[C@H](C)NC(=O)[C@@H](N)CCC(=O)O)C(C)C)C(C)C)C(=O)N[C@@H](CCC(=O)O)C(=O)NCC(=O)N[C@@H](CO)C(=O)N[C@@H](CC(C)C)C(=O)N[C@@H](CCC(N)=O)C(=O)O [C-peptide, Recombinant human C-peptide]
- Accumulation following repeated dosing [1]: no significant accumulation
- Decrease in systolic blood pressure, high-dose vs low-dose group ([2]; 6 months, p<0.004, not statistically different from placebo): significantly greater decrease
- BPd (diastolic blood pressure) change, mean ± SD ([2]; high-dose C-peptide): −2.6 ± 8.0 mmHg
- BPd (diastolic blood pressure) change, median ([2]; high-dose C-peptide): −1.0 mmHg
- BPs (systolic blood pressure) change, mean ± SD ([2]; high-dose C-peptide): −8.8 ± 10.0 mmHg
- BPs (systolic blood pressure) change, median ([2]; high-dose C-peptide): −8.0 mmHg
- Heart rate change, mean ± SD ([2]; high-dose C-peptide): −3.2 ± 10.0 bpm
- Heart rate change, median ([2]; high-dose C-peptide): −4.0 bpm
- QTc-interval Bazett change, mean ± SD ([2]; high-dose C-peptide): -4.5 ± 20.3 ms
- QTc-interval Bazett change, median ([2]; high-dose C-peptide): 0.0 ms
- QTc-interval Fredericia change, mean ± SD ([2]; high-dose C-peptide): -0.5 ± 16.2 ms
- QTc-interval Fredericia change, median ([2]; high-dose C-peptide): 0.0 ms
- BPd (diastolic blood pressure) change, mean ± SD ([2]; low-dose C-peptide): −2.7 ± 8.2 mmHg
- BPd (diastolic blood pressure) change, median ([2]; low-dose C-peptide): −1.0 mmHg
- BPs (systolic blood pressure) change, mean ± SD ([2]; low-dose C-peptide): −2.1 ± 12.8 mmHg
- BPs (systolic blood pressure) change, median ([2]; low-dose C-peptide): −1.0 mmHg
- Heart rate change, mean ± SD ([2]; low-dose C-peptide): −0.9 ± 8.2 bpm
- Heart rate change, median ([2]; low-dose C-peptide): −2.0 bpm
- QTc-interval Bazett change, mean ± SD ([2]; low-dose C-peptide): -0.1 ± 17.5 ms
- QTc-interval Bazett change, median ([2]; low-dose C-peptide): 0.0 ms
- QTc-interval Fredericia change, mean ± SD ([2]; low-dose C-peptide): 0.9 ± 14.1 ms
- QTc-interval Fredericia change, median ([2]; low-dose C-peptide): 1.3 ms
- Acute HIV infection, AE intensity (number of AE incidences) [3]: M (1)
- Herpes zoster, AE intensity (number of AE incidences) [3]: M (1)
- Adverse drug reactions or significant changes in safety variables (blood chemistries and vital signs) ([4]; 500-1,500 nmoL/24 h, 6 months): no adverse drug reactions or significant changes in safety variables
- Local reactions ([4]; S.C. injection, 6 months): No local reactions were reported
- Deaths during the study ([4]; all groups): No deaths
- Serious adverse events (SAEs) ([4]; high-dose C-peptide (1,500 nmoL/24 h)): Two
- Relationship of the SAEs to the trial medication ([4]; high-dose C-peptide, investigators' assessment): unlikely/not related
- Dizziness (SOC Injury poisoning, procedural complications), number of AEs [4, 5]: 1
- Hyperaesthesia, number of AEs [4, 5]: 1
- Hyperaesthesia, number of AEs probably/possibly related to study drug [4, 5]: (1)
- Hypoglycemia, number of AEs probably/possibly related to study drug [4, 5]: (1)
- Injection site burning, number of AEs [4, 5]: 1
- Injection site burning, number of AEs probably/possibly related to study drug [4, 5]: (1)
- Pain in extremity (SOC Musculoskeletal and connective tissue disorder), number of AEs [4, 5]: 4
- Paraesthesia, number of AEs probably/possibly related to study drug [4, 5]: (2)
- Skin infection (SOC Infections and infestations), number of AEs [4, 5]: 1
- Skin infection (SOC Skin and subcutaneous tissue disorders), number of AEs [4, 5]: 2
- Tendosynovitis stenosans, number of AEs [4, 5]: 1
- Total number of AEs [4, 5]: 156
- Total number of AEs probably/possibly related to study drug [4, 5]: (5)
- AEs of moderate intensity ([4]; high-dose group): 43 AEs
- AEs of severe intensity ([4]; high-dose group): 9 AEs
- AEs reported as possible/probable related to the study drug ([4]; high-dose group): 5 AEs
- Number of AEs reported ([4]; high-dose group, n=52, ITT): 154 AEs
- Patients with AEs ([4]; high-dose group, out of 52): 44 patients
- Cardiac arrhythmia (SVES), number of AEs [4, 6]: 1
- Dizziness (SOC Nervous system disorders), number of AEs [4, 6]: 2
- Elevated serum creatinine, number of AEs [4, 6]: 1
- Hepatic enzyme increase, number of AEs probably/possibly related to study drug [4, 6]: (1)
- Hyperglycemia, number of AEs probably/possibly related to study drug [4, 6]: (1)
- Hyperthermeasthesia, number of AEs [4, 6]: 2
- Hyperthermeasthesia, number of AEs probably/possibly related to study drug [4, 6]: (2)
- Hypoglycemia, number of AEs probably/possibly related to study drug [4, 6]: (1)
- Insulin sensitivity increased, number of AEs [4, 6]: 1
- Insulin sensitivity increased, number of AEs probably/possibly related to study drug [4, 6]: (1)
- Musculoskeletal chest pain, number of AEs [4, 6]: 1
- Pain in extremity (SOC Musculoskeletal and connective tissue disorder), number of AEs [4, 6]: 3
- Pain in extremity (SOC Musculoskeletal and connective tissue disorder), number of AEs probably/possibly related to study drug [4, 6]: (1)
- Paraesthesia, number of AEs probably/possibly related to study drug [4, 6]: (1)
- Skin infection (SOC Infections and infestations), number of AEs [4, 6]: 5
- Tachycardia (stress related), number of AEs [4, 6]: 1
- Total number of AEs [4, 6]: 173
- Total number of AEs probably/possibly related to study drug [4, 6]: (8)
- AEs of moderate intensity ([4]; low-dose group): 51 AEs
- AEs of severe intensity ([4]; low-dose group): 1 AEs
- AEs reported as possible/probable related to the study drug ([4]; low-dose group): 8 AEs
- Number of AEs reported ([4]; low-dose group, n=56, ITT): 173 AEs
- Patients with AEs ([4]; low-dose group, out of 56): 48 patients
